Data reported in patent publication US20070270350A1, “Methods and Compositions for the Prevention and Treatment of Inflammatory Diseases or Conditions” (MUSC FOUNDATION FOR RESEARCH DEVELOPMENT, priority 2003, published 2007).

Assays:
T cells = experiment: Cytokine production by PLP139-151-primed DLN cells and naïve T cells; type: cell-based, mouse; conditions: lovastatin 10 and 20 μM, p<0.0001
Procedure: (A), (C), (E), (G), and (I) DNL cells were isolated on day 10 from PLP139-151 immunized SJL/J mice and cultured in vitro at 5×10^6 cells/ml in the presence of PLP139-151 (5 μg/ml) and lovastatin (10 and 20 μM). (B) (D), (F), (H), and (J) Naïve T cells (98% purified) isolated from lymph nodes were cultured in anti-CD3 and anti-CD28-precoated plates at 1×10^6 cells/ml with lovastatin (10 and 20 μM). The supernatants were collected at 48 h (for IFN-γ and TNF-α) and 120 h (for IL-4, IL-5, and IL-10) for cytokine measurements. […] The values are the means of triplicate determinations at each point, and the error bars represent +/−SD.

Microglia = conditions: 10 μM lovastatin or 5 mM NaPA 8 h, LPS 1.0 μg/ml, 24 h
EAE in SJL/J mice = experiment: Active and passive EAE in SJL/J mice treated with lovastatin; type: in vivo, mouse; conditions: i.p. t or 5 mg/kg lovastatin every day, days 0-60 or started on day 10, p<0.001
NF-κβ = experiment: Nuclear translocation of NF-κβ in anti-CD3/CD28 stimulated naïve T cells; type: cell-based, mouse; conditions: lovastatin 2 h pretreatment, dose-dependent (5-50 μM); anti-CD3 and CD28 4 h
Macrophages = conditions: 10 μM lovastatin or 5 mM NaPA 8 h, LPS 1.0 μg/ml, 24 h
KA-treated rats = experiment: KA-induced seizure model (epilepsy model), rat hippocampus; type: in vivo; conditions: statin 10 mg/kg orally, 3 days after KA
Procedure: FIG. 45. Experimental design for the use of statins as a therapeutic for kinic acid induced seizures (epilepsy model).
FIG. 46. […] The rats were orally pre-treated (7 days before) with atorvastatin (LP; 10 mg/kg) prior to KA (10 mg/kg, i.p.). At 3 days after KA injection, neuronal cell death in hippocampus was examined using cresyl violet stain.
FIG. 47. […] The rats were orally pre-treated (7 days before) with atorvastatin (LP; 10 mg/kg) prior to KA (10 mg/kg, i.p.). At 3 days after KA injection, infiltration of macrophages in the CA1 and CA3 regions of the hippocampus was examined using immunofluorescent labeling against for ED-1, as a marker of monocytes.
The rats were orally pre-treated (7 days before) with atorvastatin (LP; 10 mg/kg) prior to KA (10 mg/kg, i.p.). At 3 days after KA injection, neuronal cell death in the CA1 (A) and CA3 (B) regions of the hippocampus was examined using TUNNEL assay.
FIG. 49. […] The rats were orally pre-treated (7 days before) with lovastatin (Lov; 10 mg/kg) prior to KA (10 mg/kg, i.p.). At 3 days after KA injection, neuronal cell death in hippocampus was examined using cresyl violet stain.
(§1) FIG. 50A-C. […] The rats were orally pre-treated (7 days before) with atorvastatin (LP; 10 mg/kg) prior to KA (10 mg/kg, i.p.). At 3 days after KA injection, the expression of inflammatory genes (TNF-α, IL-1β, and iNOS) in hippocampus using real time PCR. The expression of each gene was normalized with GAPDH expression.
as §1, with “51A-C.” for “50A-C.”, “lovastatin (Lov;” for “atorvastatin (LP;”
Seizure index: stage 1, facial clonus; stage 2, nodding; stage 3, forelimb clonus; stage 4, forelimb clonus with rearing; stage 5, rearing, jumping, and falling. The rats were orally pre-treated (7 days before) with lovastatin or atorvastatin (Lov or LP; 10 mg/kg) prior to KA (10 mg/kg, i.p.).

Rat Primary Astrrocytes = conditions: LPS 1.0 μg/ml, 24 h
[1] = 48 h, PLP-primed and naïve T cells

With `CC[C@H](C)C(=O)O[C@H]1C[C@@H](C)C=C2C=C[C@H](C)[C@H](CC[C@@H]3C[C@@H](O)CC(=O)O3)[C@H]21` [Lovastatin, lovastatin] the IFN-γ in supernatants (T cells; [1]) was “significantly reduced”, the TNF-α in supernatants (T cells; [1]) was “significantly reduced” and the IL-4 in supernatants (T cells; 120 h) was “significantly increased”. For the same compound, the IL-5 in supernatants (T cells; 120 h) was “significantly increased”, the IL-10 in supernatants (T cells; 120 h) was “significantly increased” and the TNF-α (Microglia; LPS only 14.5 +/− 2.1) was 0.9 +/− 0.1 ng/24 h/mg protein. For the same compound, the Il-1β (Microglia; LPS only 28.2 +/− 3.4) was 2.1 +/− 0.3 ng/24 h/mg protein, the NO (Microglia; LPS only 81.2 +/− 6.9) was 5.9 +/− 0.4 n mol/24 h/mg protein and the IL-6 (Microglia; LPS only 295.6 +/− 33.5) was 7.8 +/− 1.1 ng/24 h/mg protein. The “severity of EAE disease (mean clinical scores)” value (EAE in SJL/J mice) was “significantly less”, the “nuclear translocation of NF-κβ” value (NF-κβ) was “inhibits” and the TNF-α (Macrophages; LPS only 18.6 +/− 2.3) was 1.2 +/− 0.1 ng/24 h/mg protein. For the same compound, the Il-1β (Macrophages; LPS only 34.6 +/− 4.5) was 2.3 +/− 0.3 ng/24 h/mg protein, the NO (Macrophages; LPS only 118.5 +/− 12.5) was 7.2 +/− 0.9 n mol/24 h/mg protein and the IL-6 (Macrophages; LPS only 350.0 +/− 27.6) was 8.3 +/− 0.6 ng/24 h/mg protein. For the same compound, the “KA-induced neuronal cell death in hippocampus (cresyl violet stain)” value (KA-treated rats; 7 days before KA 10 mg/kg i.p.) was “inhibited”, the “expression of inflammatory genes (TNF-α, IL-1β, and iNOS) induced by KA in hippocampus (real time PCR)” value (KA-treated rats; 7 days before KA) was “inhibited” and the TNF-α (Rat Primary Astrrocytes; 10 μM lovastatin or 5 mM NaPA 8 h, LPS only 5.3 +/− 0.8) was 0.3 +/− 0.05 ng/24 h/mg protein. For the same compound, the Il-1β (Rat Primary Astrrocytes; 10 μM lovastatin or 5 mM NaPA 8 h, LPS only 10.4 +/− 1.5) was 0.8 +/− 0.1 ng/24 h/mg protein, the IL-6 (Rat Primary Astrrocytes; 10 μM lovastatin or 5 mM NaPA 8 h, LPS only 136.5 +/− 16.8) was 0.8 +/− 0.1 ng/24 h/mg protein and the NO (Rat Primary Astrrocytes; 10 μM lovastatin or 5 mM NaPA 8 h serum free, LPS only 25.3 +/− 3.2) was 5.2 +/− 0.4 n mol/24 h/mg protein.
